We go through twelve molecules from patent US10780090B2, “Heteroaryl compounds useful as inhibitors of SUMO activating enzyme” (Millennium Pharmaceuticals, Inc., priority 2014, dated 2020).

The structures appear in SMILES notation.

The experiment deals with recombinant human SAE enzyme (Homo sapiens (Human), UniProt Q9UBT2). Briefly: SAE HTRF enzyme assay. The experiment is classed as biochemical. As to conditions: for Percent Inhibition: SAE inhibition at compound concentration 0.111 μM; for IC50: SAE inhibition, class symbols, legend in nM. Put shortly: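 Enzyme reaction: 50 mM HEPES pH 7.5, 5 mM MgCl2, 250 μM GSH, 0.05% BSA, 0.5 μM ATP, 0.01 μM Ubc9-GST, 0.125 μM Sumo-Flag, 0.11 nM SAE; 105 min, 24° C. Stop/detect, 2 h, then HTRF. % inh or IC50.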
recombinant human SAE enzyme, sequence (Q9UBT2 whole entry): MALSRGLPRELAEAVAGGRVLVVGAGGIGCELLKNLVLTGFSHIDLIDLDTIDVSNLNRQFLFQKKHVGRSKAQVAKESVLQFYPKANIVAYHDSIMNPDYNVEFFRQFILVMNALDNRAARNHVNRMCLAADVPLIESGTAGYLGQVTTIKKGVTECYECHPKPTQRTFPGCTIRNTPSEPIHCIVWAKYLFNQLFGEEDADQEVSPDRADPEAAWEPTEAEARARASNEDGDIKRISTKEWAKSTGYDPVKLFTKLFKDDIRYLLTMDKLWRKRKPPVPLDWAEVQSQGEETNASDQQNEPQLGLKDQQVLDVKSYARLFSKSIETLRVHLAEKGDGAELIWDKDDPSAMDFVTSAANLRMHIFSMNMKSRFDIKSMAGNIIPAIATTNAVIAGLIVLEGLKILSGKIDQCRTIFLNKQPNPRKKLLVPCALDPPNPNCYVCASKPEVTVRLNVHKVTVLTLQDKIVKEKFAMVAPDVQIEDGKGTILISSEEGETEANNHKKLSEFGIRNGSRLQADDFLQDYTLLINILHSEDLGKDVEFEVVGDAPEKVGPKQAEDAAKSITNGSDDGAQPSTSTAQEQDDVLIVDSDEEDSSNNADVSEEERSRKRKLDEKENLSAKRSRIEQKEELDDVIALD
recombinant human SAE enzyme, sequence (Q9UBE0 whole entry partner): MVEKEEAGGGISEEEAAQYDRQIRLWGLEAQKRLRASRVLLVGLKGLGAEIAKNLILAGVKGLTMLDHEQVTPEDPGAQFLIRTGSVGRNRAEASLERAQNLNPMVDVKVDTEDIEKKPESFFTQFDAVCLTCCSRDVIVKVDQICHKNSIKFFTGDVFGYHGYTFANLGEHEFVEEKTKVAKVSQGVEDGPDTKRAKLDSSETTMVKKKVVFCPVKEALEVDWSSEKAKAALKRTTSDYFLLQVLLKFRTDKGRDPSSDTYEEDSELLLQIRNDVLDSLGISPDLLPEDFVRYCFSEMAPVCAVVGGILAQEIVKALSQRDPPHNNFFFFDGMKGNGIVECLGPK
On the technique in general: In TR-FRET formats the signal depends on donor and acceptor labels being close together.

The IC50 is the midpoint of a concentration-inhibition curve. `Cc1sc(C(=O)c2cncnc2N[C@@H]2C[C@H](COS(N)(=O)=O)[C@@H](O)C2)cc1[C@@H]1OCCc2ccc(CN(C)C)cc21` (mixture of isomers) [I-329, [(1R,2S,4R)-4-({5-[(4-{(1R)-7-[(dimethylamino)methyl]-3,4-dihydro-1H-isochromen-1-yl}-5-methyl-2-thienyl)carbonyl]pyrimidin-4-yl}amino)-2-hydroxycyclopentyl]methyl sulfamate and [(1R,2S,4R)-4-({5-[(4-{(1S)-7-[(dimethylamino)methyl]-3,4-dihydro-1H-isochromen-1-yl}-5-methyl-2-thienyl)carbonyl]pyrimidin-4-yl}amino)-2-hydroxycyclopentyl]methyl sulfamate]: the “Percent Inhibition” value is 36% and the IC50 was 100 to 1000 nM.
With `Cc1cc2n(n1)CCO[C@H]2c1csc(C(=O)c2cncnc2N[C@@H]2C[C@H](COS(N)(=O)=O)[C@@H](O)C2)c1` (mixture of isomers) [I-332, [(1R,2S,4R)-2-hydroxy-4-{[5-({4-[(4S)-2-methyl-6,7-dihydro-4H-pyrazolo[5,1-c][1,4]oxazin-4-yl]-2-thienyl}carbonyl)pyrimidin-4-yl]amino}cyclopentyl]methyl sulfamate and [(1R,2S,4R)-2-hydroxy-4-{[5-({4-[(4R)-2-methyl-6,7-dihydro-4H-pyrazolo[5,1-c][1,4]oxazin-4-yl]-2-thienyl}carbonyl)pyrimidin-4-yl]amino}cyclopentyl]methyl sulfamate], the “Percent Inhibition” value turned out to be 25% and the IC50 lay within 100 to 1000 nM.
On the same counts, the results for `Cc1cnn2c1[C@H](c1csc(C(=O)c3cncnc3N[C@@H]3C[C@H](COS(N)(=O)=O)[C@@H](O)C3)c1)OCC2` (mixture of isomers) [I-333, [(1R,2S,4R)-2-hydroxy-4-{[5-({4-[(4S)-3-methyl-6,7-dihydro-4H-pyrazolo[5,1-c][1,4]oxazin-4-yl]-2-thienyl}carbonyl)pyrimidin-4-yl]amino}cyclopentyl]methyl sulfamate and [(1R,2S,4R)-2-hydroxy-4-{[5-({4-[(4R)-3-methyl-6,7-dihydro-4H-pyrazolo[5,1-c][1,4]oxazin-4-yl]-2-thienyl}carbonyl)pyrimidin-4-yl]amino}cyclopentyl]methyl sulfamate] are 15% and 100 to 1000 nM.
For `CC(C)(C)OC(=O)N1CCc2ccc(Cl)cc2[C@@H]1c1csc(C(=O)c2cncnc2N[C@@H]2C[C@H](COS(N)(=O)=O)[C@@H](O)C2)c1.CC(C)(C)OC(=O)N1CCc2ccc(Cl)cc2[C@H]1c1csc(C(=O)c2cncnc2N[C@@H]2C[C@H](COS(N)(=O)=O)[C@@H](O)C2)c1` (mixture of isomers) [I-334, tert-butyl (1R)-7-chloro-1-(5-{[4-({(1R,3S,4R)-3-hydroxy-4-[(sulfamoyloxy)methyl]cyclopentyl}amino)pyrimidin-5-yl]carbonyl}-3-thienyl)-3,4-dihydroisoquinoline-2(1H)-carboxylate and tert-butyl (1S)-7-chloro-1-(5-{[4-({(1R,3S,4R)-3-hydroxy-4-[(sulfamoyloxy)methyl]cyclopentyl}amino)pyrimidin-5-yl]carbonyl}-3-thienyl)-3,4-dihydroisoquinoline-2(1H)-carboxylate], in that order: 10% and 100 to 1000 nM.
Consider `CC(C)(C)OC(=O)N1CCc2ccc(Cl)cc2[C@@H]1c1cc(C(=O)c2cncnc2N[C@@H]2C[C@H](COS(N)(=O)=O)[C@@H](O)C2)sc1Cl.CC(C)(C)OC(=O)N1CCc2ccc(Cl)cc2[C@H]1c1cc(C(=O)c2cncnc2N[C@@H]2C[C@H](COS(N)(=O)=O)[C@@H](O)C2)sc1Cl` (mixture of isomers) [I-336, tert-butyl (1R)-7-chloro-1-(2-chloro-5-{[4-({(1R,3S,4R)-3-hydroxy-4-[(sulfamoyloxy)methyl]cyclopentyl}amino)pyrimidin-5-yl]carbonyl}-3-thienyl)-3,4-dihydroisoquinoline-2(1H)-carboxylate and tert-butyl (1S)-7-chloro-1-(2-chloro-5-{[4-({(1R,3S,4R)-3-hydroxy-4-[(sulfamoyloxy)methyl]cyclopentyl}amino)pyrimidin-5-yl]carbonyl}-3-thienyl)-3,4-dihydroisoquinoline-2(1H)-carboxylate], for which the “Percent Inhibition” value is 15% and the IC50 was in the range of 100 to 1000 nM.
On to `Cc1sc(C(=O)c2cncnc2N[C@@H]2C[C@H](COS(N)(=O)=O)[C@@H](O)C2)cc1[C@@H]1OCCn2cc(C(F)(F)F)nc21` (mixture of isomers) [I-337, [(1R,2S,4R)-2-hydroxy-4-{[5-({5-methyl-4-[(8S)-2-(trifluoromethyl)-5,6-dihydro-8H-imidazo[2,1-c][1,4]oxazin-8-yl]-2-thienyl}carbonyl)pyrimidin-4-yl]amino}cyclopentyl]methyl sulfamate and [(1R,2S,4R)-2-hydroxy-4-{[5-({5-methyl-4-[(8R)-2-(trifluoromethyl)-5,6-dihydro-8H-imidazo[2,1-c][1,4]oxazin-8-yl]-2-thienyl}carbonyl)pyrimidin-4-yl]amino}cyclopentyl]methyl sulfamate], for which the “Percent Inhibition” value was found to be 89% and the half-inhibitory concentration (IC50) lay in the range of 10 to 100 nM.
With `COc1ccc2c(n1)[C@H](c1cc(C(=O)c3cncnc3N[C@@H]3C[C@H](COS(N)(=O)=O)[C@@H](O)C3)sc1C)OCC2` (mixture of isomers) [I-339, [(1R,2S,4R)-2-hydroxy-4-{[5-({4-[(8S)-2-methoxy-5,8-dihydro-6H-pyrano[3,4-b]pyridin-8-yl]-5-methyl-2-thienyl}carbonyl)pyrimidin-4-yl]amino}cyclopentyl]methyl sulfamate and [(1R,2S,4R)-2-hydroxy-4-{[5-({4-[(8R)-2-methoxy-5,8-dihydro-6H-pyrano[3,4-b]pyridin-8-yl]-5-methyl-2-thienyl}carbonyl)pyrimidin-4-yl]amino}cyclopentyl]methyl sulfamate], the “Percent Inhibition” value stood at 99% and the IC50 was < 10 nM.
As for `COc1ccc2c(c1)[C@H](c1cc(C(=O)c3cncnc3N[C@@H]3C[C@H](COS(N)(=O)=O)[C@@H](O)C3)sc1C)OCC2` (mixture of isomers) [I-341, [(1R,2S,4R)-2-hydroxy-4-{[5-({4-[(1R)-7-methoxy-3,4-dihydro-1H-isochromen-1-yl]-5-methyl-2-thienyl}carbonyl)pyrimidin-4-yl]amino}cyclopentyl]methyl sulfamate and [(1R,2S,4R)-2-hydroxy-4-{[5-({4-[(1S)-7-methoxy-3,4-dihydro-1H-isochromen-1-yl]-5-methyl-2-thienyl}carbonyl)pyrimidin-4-yl]amino}cyclopentyl]methyl sulfamate], the “Percent Inhibition” value turned out to be 10% and the half-inhibitory concentration (IC50) fell in the range of 100 to 1000 nM.
With `NS(=O)(=O)OC[C@H]1C[C@@H](Nc2ncncc2C(=O)c2cc([C@@H]3OCC(=O)c4ccccc43)cs2)C[C@@H]1O` (mixture of isomers) [I-342, [(1R,2S,4R)-2-hydroxy-4-{[5-({4-[(1R)-4-oxo-3,4-dihydro-1H-isochromen-1-yl]-2-thienyl}carbonyl)pyrimidin-4-yl]amino}cyclopentyl]methyl sulfamate and [(1R,2S,4R)-2-hydroxy-4-{[5-({4-[(1S)-4-oxo-3,4-dihydro-1H-isochromen-1-yl]-2-thienyl}carbonyl)pyrimidin-4-yl]amino}cyclopentyl]methyl sulfamate], the “Percent Inhibition” value is given as 93% and the concentration for half-maximal inhibition (IC50) was < 10 nM.
On the same counts, the results for `Cc1sc(C(=O)c2cncnc2N[C@@H]2C[C@H](COS(N)(=O)=O)[C@@H](O)C2)cc1[C@@H]1OCCn2c1nc1ccccc12` (mixture of isomers) [I-344, [(1R,2S,4R)-4-{[5-({4-[(1S)-3,4-dihydro-1H-[1,4]oxazino[4,3-a]benzimidazol-1-yl]-5-methyl-2-thienyl}carbonyl)pyrimidin-4-yl]amino}-2-hydroxycyclopentyl]methyl sulfamate and [(1R,2S,4R)-4-{[5-({4-[(1R)-3,4-dihydro-1H-[1,4]oxazino[4,3-a]benzimidazol-1-yl]-5-methyl-2-thienyl}carbonyl)pyrimidin-4-yl]amino}-2-hydroxycyclopentyl]methyl sulfamate] are 99% and < 10 nM.
`CCc1ccc2c(c1)[C@H](c1cc(C(=O)c3cncnc3N[C@@H]3C[C@H](COS(N)(=O)=O)[C@@H](O)C3)sc1C)OCC2` (mixture of isomers) [I-346, [(1R,2S,4R)-4-{[5-({4-[(1R)-7-ethyl-3,4-dihydro-1H-isochromen-1-yl]-5-methyl-2-thienyl}carbonyl)pyrimidin-4-yl]amino}-2-hydroxycyclopentyl]methyl sulfamate and [(1R,2S,4R)-4-{[5-({4-[(1S)-7-ethyl-3,4-dihydro-1H-isochromen-1-yl]-5-methyl-2-thienyl}carbonyl)pyrimidin-4-yl]amino}-2-hydroxycyclopentyl]methyl sulfamate]: the “Percent Inhibition” value stood at 99% and the IC50 is < 10 nM.
On the same counts, the results for `Cc1ccc2c(c1)[C@H](c1cc(C(=O)c3cncnc3N[C@@H]3C[C@H](COS(N)(=O)=O)[C@@H](O)C3)sc1C)OCC2` (mixture of isomers) [I-347, [(1R,2S,4R)-2-hydroxy-4-{[5-({5-methyl-4-[(1R)-7-methyl-3,4-dihydro-1H-isochromen-1-yl]-2-thienyl}carbonyl)pyrimidin-4-yl]amino}cyclopentyl]methyl sulfamate and [(1R,2S,4R)-2-hydroxy-4-{[5-({5-methyl-4-[(1S)-7-methyl-3,4-dihydro-1H-isochromen-1-yl]-2-thienyl}carbonyl)pyrimidin-4-yl]amino}cyclopentyl]methyl sulfamate] are 97% and < 10 nM.
